Test system: maltose binding protein/lactamase enzyme (switch enzyme)
Experiment: Lactamase switch enzyme activity monitored with chromogenic substrate nitrocefin
Type: biochemical
Conditions: for activation of the switch protein: without dephosphorylation; for activation of the switch protein / activation of the switch protein after dephosphorylation: FIG. 4E; for activation of the switch protein after dephosphorylation: dephosphorylated with shrimp alkaline phosphatase
Source text: A maltose with the 1′ hydroxyl attached to the terminal phosphate of a dNTP should not bind effectively to the switch and so should not activate the maltose binding protein/lactamase enzyme^12. The conjugated maltose/dNTP can be used to detect incorporation of dNTP during a cycle of sequencing by synthesis: the enzyme is only activated after incorporation of a dNTP released phospho-maltose which is then be dephosphorylated to yield the maltose activator. […] Maltose monohydrate (1.44 g) was dissolved in 1 ml of water titrated to pH 12.5 by addition of NaOH and heated to 80° C. Trisodium trimetaphosphate (0.31 g) was added and the mixture reacted at room temperature for 25 hours. The maltose-triphosphate product was purified by anion exchange chromatography on a Dowex 1-X2 resin and eluted with 300 mM KCl.
The switch protein was expressed and purified as previously described^21 and enzyme activity was monitored using the chromogenic substrate nitrocefin. […] Addition of maltose increased the enzyme activity more than 210-fold.

Compound	increase of enzyme activity on addition of maltose (10 nM switch enzyme, nitrocefin hydrolysis, FIG. 4A)	Lactamase switch hydrolyses nitrocefin faster after maltose addition (FIG. 4(A) legend) [times]	activation of the switch protein	activation of the switch protein after dephosphorylation	activation of the switch protein after dephosphorylation (listed as Maltose triphosphate)
OC[C@H]1O[C@H](O[C@H]2[C@H](O)[C@@H](O)C(O)O[C@@H]2CO)[C@H](O)[C@@H](O)[C@@H]1O (mixture of isomers) [maltose]	more than 210 fold	210	activates the protein		
maltose triphosphate			no appreciable activation	activation levels similar to that of maltose	significant activation of the lactamase switch only upon dephosphorylation

From patent US20160068902A1, “SEQUENCING NUCLEIC ACIDS BY ENZYME ACTIVATION” (CAERUS MOLECULAR DIAGNOSTICS, priority 2013, published 2016)
